This is an account of results in patent US7038021B2, “Anti-dioxins monoclonal antibody suitable for assaying dioxins in environment and hybridoma producing the same” (priority 2004, dated 2006).

For orientation: IC50 means the concentration that gives 50% inhibition. Higher therefore signals lower potency.

Each structure is given as a SMILES string. ≈ marks a conversion by molar mass, not a printed value. Where only a bound is given, the exact number is not on record here.

Test [1] has as its system monoclonal antibody Dx02-I-0. Kind of test: Standard curve by indirect competitive assay, inhibition by 2,3,4,7,8-PeCDF. In kind it is binding, mouse. Conditions: purified antibody Dx02-I-0, immobilized II-1, FIG. 1. On the procedure: II-1 was immobilized onto a microtiter plate at room temperature for one hour, and the plate was washed three Limes with the washing solution (300 μl). A solution (300 μl) of Block Ace prepared by 4-fold diluting with deionized water was then added to the wells, and the wells were blocked at room temperature for 2 hours. The wells were washed three times with the washing solution. […]
The wells were then washed, and a secondary antibody, i.e. a solution (50 μl) of a horseradish peroxidase-labeled anti-mouse IgG (recognizing γ-chain) prepared by 3000-fold diluting with a solution of Block Ace 10-fold diluted with deionized water was added to the wells, and reacted at room temperature for one hour. […] After 5 to 15 minutes, the reaction was terminated by adding 1 M phosphoric acid (50 μl), and the absorbance at 450 nm was immediately measured using a microplate reader. The ratio (B/B0) of an absorbance value (B) in the well to which one of dioxins was added, to control OD (B0) was calculated, and the calculated values were plotted against the concentrations of the added dioxin with single logarithm to obtain a typical sigmoid curve (FIG. 1).

The test system of test [2] is monoclonal antibody Dx02-I-0. Kind of test: Cross-reactivity of monoclonal antibody Dx02-I-0 by indirect competitive assay (ELISA, II-1 immobilized). In kind it is binding, mouse. As to the method: According to the method used for determination of the antibody titer, antigen II-1 or II-2 was immobilized onto wells of a microtiter plate and the wells were washed. A solution (300 μl) of Block Ace 4-fold diluted with deionized water was then added to the wells, and the wells were blocked by allowing it to stand at room temperature for 2 hours. The wells were washed three times with the washing solution (300 μl). The supernatant (25 μl) of the culture containing a primary antibody as well as a solution (25 μl) of various concentrations of a phenoxathiin derivative (I-1 or I-2), which is a compound for screening having a structure similar to that of dioxins and having a reduced toxicity, in 20% DMSO and 0.01% Triton-X100, or a solution (25 μl) of various concentrations of dioxins in 20% DMSO and 0.01% Triton-X100, or a solution (25 μl) containing neither the phenoxathiin derivatives nor the dioxins in 20% DMSO and 0.01% Triton-X100 which serves as a control were then added to the wells and mixed in the wells. The wells were allowed to stand at room temperature for 10 to 30 minutes to effect an antigen-antibody reaction.
The wells were washed three times with the washing solution (300 μl). Then, in order to detect the primary antibody which was bound to II-1 or II-2 immobilized onto the plate, a solution (50 μl) of a horseradish peroxidase-labeled anti-mouse IgG (recognizing γ-chain) prepared by 3000-fold diluting with a solution of Block Ace 10-fold diluted with deionized water was added to the wells as a solution of a secondary antibody, and reacted at room temperature for one our. After the wells were again washed three times with the washing solution (300 μl), a TMB solution was added to the wells, and a coloration reaction was effected at room temperature. After 5 to 15 minutes, the reaction was terminated by adding 1 M phosphoric acid (50 μl), and the absorbance at 450 nm was immediately measured using a microplate reader. The ratio (B/B0) of an absorbance value (B) in the well to which one of phenoxathiin derivatives or dioxins was added, to an absorbance value (control OD; B0) in the well to which only a solution of 20% DMSO and 0.01% Triton-X100 was added but neither the phenoxathiin derivatives nor the dioxins were added, was calculated to evaluate the reactivity of the primary antibody. A hybridoma in the well in which a continuously high production of an antibody having a high binding activity against the antigens was recognized was selected, expanded, and cloned by a limiting dilution method.
Using monoclonal antibody Dx02-I-0, the cross-reactivity with 17 kinds of dioxins each having a toxicity value and 12 kinds of coplanar PCBs was evaluated by an indirect competitive assay. II-1 (50 μl) was added to wells in a microtiter plate, and the wells were allowed to stand at room temperature for one hour and then washed. After the wells were blocked, various concentrations of one of dioxins (25 μl) dissolved in 20% DMSO and 0.01% Triton-X100 or a solution (25 μl) of 20% DMSO and 0.01% Triton-X100 not containing any dioxin which serves as a control as well as a solution (25 μl) of the antibody diluted with 0.01 to 0.1% BSA were added to the wells in the plate, and reacted at room temperature for 10 to 30 minutes.
Then, a coloration reaction was effected using a secondary antibody against the antibody bound to the solid phase, i.e. a peroxidase-labeled anti-mouse IgG antibody (recognizing γ-chain) as well as TMB. After the enzyme reaction was terminated, the absorbance at 450 nm was immediately measured. The B/B0 values were plotted for various dioxins, IC50 values were calculated from the resulting figures, and the cross-reactivity of the antibody was obtained from these values (Table 3).
In general terms: In an ELISA, binding on a coated surface is turned into a signal by an enzyme label.

`Clc1cc2oc3c(Cl)c(Cl)c(Cl)cc3c2cc1Cl` [2,3,4,7,8-PeCDF, 2,3,4,7,8-pentachlorodibenzofuran]: the “detectable concentration in the assay system” value in test [1] is not above 1 ng/mL. Besides, the “reactivity (cross-reactivity) of the antibody” value in test [2] (assuming the reactivity with 1,2,3,7,8-PeCDF is 100%) turned out to be 16%. The compound further gave a half-inhibitory concentration (IC50) in test [2] (indirect competitive assay, immobilized II-1, 20% DMSO and 0.01% Triton-X100, room temperature 10 to 30 minutes) of 5.86 ng/mL (≈ 0.0172 µM). In addition, the Cross-reactivity in test [2] (obtained from IC50 values, 1,2,3,7,8-PeCDF = 100) is 16.
